Values of other authors as cited in patent US20240156808A1, “Compositions and methods to improve the therapeutic benefit of suboptimally chemical compounds and biological therapies including substituted camptothecins such as irinotecan and topotecan for the treatment of benign and neoplastic hyperproliferative disease conditions, infections, inflammatory and …” (Edison Oncology, priority 2021, published 2024).

Columns and labels:
CES2 = target: T1, CES2 (Homo sapiens, UniProt O00748); settings: CES2 versus CES1
T1 sequence (O00748 27-559): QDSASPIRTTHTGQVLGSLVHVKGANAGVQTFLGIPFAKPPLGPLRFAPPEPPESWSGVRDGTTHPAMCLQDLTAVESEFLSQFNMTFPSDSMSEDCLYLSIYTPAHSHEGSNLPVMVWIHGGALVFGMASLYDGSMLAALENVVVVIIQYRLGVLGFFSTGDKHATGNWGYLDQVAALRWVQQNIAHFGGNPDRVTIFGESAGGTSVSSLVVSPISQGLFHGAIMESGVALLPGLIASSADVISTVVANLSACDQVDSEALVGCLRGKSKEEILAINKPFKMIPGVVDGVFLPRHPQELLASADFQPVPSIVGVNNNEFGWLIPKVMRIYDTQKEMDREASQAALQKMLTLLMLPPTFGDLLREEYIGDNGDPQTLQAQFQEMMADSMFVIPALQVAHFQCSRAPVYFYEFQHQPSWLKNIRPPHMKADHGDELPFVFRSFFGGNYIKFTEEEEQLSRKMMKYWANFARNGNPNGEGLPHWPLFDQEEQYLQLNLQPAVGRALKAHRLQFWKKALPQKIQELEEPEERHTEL

elimination half-life (SN-38) [h] | time to peak plasma concentration (after infusion) | distribution half-life (in vivo) | SMILES | fraction of irinotecan hydrolyzed to SN-38 (in the liver by CES1 and CES2, also in plasma by butyrylcholinesterase) | affinity of CES2 for irinotecan relative to CES1 (CES2) [fold]
6 to 32 | two | about 8 minutes | CCc1c2c(nc3ccc(O)cc13)-c1cc3c(c(=O)n1C2)COC(=O)[C@]3(O)CC [SN-38] | – | –
– | – | – | CCc1c2c(nc3ccc(OC(=O)N4CCC(N5CCCCC5)CC4)cc13)-c1cc3c(c(=O)n1C2)COC(=O)[C@]3(O)CC [irinotecan, (S)-4,11-diethyl-3,4,12,14-tetrahydro-4-hydroxy-3,14-dioxo1H-pyrano[3′,4′:6,7]-indolizino[1,2-b]quinolin-9-yl-[1,4′bipiperidine]-1′-carboxylate] | 2-5% | 12.5
